As usually defined, the IC50 is the concentration that gives 50% inhibition. A higher IC50 goes with a need for much substance.

Bounds are passed on as bounds.

Experimental findings from patent US9303035B2, “Substituted pyrazino[1′,2′:1,2]pyrrolo[3,4-d]pyrimidines, pyrimido[4′,5′:3,4]pyrrolo[2,1-c][1,4]oxazines and pyrimido[4′,5′:3,4]pyrrolo[1,2-d][1,4]oxazepines for inhibiting the CFTR channel” (Novartis AG, priority 2012, dated 2016) are described below.

CFTR (WT-CFTR channels stably expressed in CHO cells), sequence (P13569 whole entry): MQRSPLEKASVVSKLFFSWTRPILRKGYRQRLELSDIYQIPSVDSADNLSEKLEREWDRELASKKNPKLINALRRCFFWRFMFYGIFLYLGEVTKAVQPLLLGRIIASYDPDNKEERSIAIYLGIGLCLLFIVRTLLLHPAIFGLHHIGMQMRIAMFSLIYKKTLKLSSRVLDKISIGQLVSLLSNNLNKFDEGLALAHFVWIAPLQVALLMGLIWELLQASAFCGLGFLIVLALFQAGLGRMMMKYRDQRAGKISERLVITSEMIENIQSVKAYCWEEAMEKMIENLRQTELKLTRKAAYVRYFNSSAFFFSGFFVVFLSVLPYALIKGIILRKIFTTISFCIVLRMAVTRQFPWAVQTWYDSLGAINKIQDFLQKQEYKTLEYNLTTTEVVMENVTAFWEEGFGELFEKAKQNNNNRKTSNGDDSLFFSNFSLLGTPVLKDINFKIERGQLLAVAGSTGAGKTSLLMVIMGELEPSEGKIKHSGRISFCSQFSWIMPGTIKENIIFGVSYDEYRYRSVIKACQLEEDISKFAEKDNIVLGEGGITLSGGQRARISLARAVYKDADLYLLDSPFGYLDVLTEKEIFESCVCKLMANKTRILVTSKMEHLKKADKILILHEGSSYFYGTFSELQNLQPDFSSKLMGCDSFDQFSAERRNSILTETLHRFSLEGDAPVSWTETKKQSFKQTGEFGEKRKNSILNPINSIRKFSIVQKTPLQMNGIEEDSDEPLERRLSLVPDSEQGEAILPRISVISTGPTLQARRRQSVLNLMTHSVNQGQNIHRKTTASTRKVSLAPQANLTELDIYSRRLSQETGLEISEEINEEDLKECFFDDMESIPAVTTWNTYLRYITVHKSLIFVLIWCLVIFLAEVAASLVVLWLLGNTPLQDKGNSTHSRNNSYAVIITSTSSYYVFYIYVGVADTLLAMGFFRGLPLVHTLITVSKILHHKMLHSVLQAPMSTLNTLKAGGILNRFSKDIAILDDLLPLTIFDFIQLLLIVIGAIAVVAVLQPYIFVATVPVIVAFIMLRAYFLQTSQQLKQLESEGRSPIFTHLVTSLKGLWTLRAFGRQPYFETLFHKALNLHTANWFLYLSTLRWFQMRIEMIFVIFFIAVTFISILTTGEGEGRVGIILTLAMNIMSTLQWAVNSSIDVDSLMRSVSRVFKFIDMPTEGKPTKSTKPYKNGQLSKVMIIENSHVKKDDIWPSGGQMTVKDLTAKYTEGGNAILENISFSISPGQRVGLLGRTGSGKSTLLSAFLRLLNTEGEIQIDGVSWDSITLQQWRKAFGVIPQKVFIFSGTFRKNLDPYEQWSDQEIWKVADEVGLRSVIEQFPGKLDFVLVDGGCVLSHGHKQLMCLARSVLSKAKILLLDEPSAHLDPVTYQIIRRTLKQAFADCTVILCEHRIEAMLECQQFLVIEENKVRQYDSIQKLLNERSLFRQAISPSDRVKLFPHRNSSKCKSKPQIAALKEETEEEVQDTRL

This experiment concerns the target CFTR (WT-CFTR channels stably expressed in CHO cells) (Homo sapiens (Human), UniProt P13569). In words: IonWorks Quattro CFTR inhibitor assay (whole-cell population patch clamp, forskolin-activated current). The class given is cell-based. The settings on record: inward current (−100 mV); CHO cells stably expressing WT-CFTR; CFTR activated with 10 μM forskolin; 10 min compound incubation. From the text:
CFTR activity can be quantified by electrophysiology methods, using the whole-cell configuration of the patch clamp technique (Hamill O, Marty A, Neher E, Sakmann B and Sigworth F. ‘Improved patch-clamp techniques for high resolution current recording from cells and cell-free membrane patches.’ Pflugers Archive 1981 391: 85-100). This assay directly measures the currents associated with chloride flow through CFTR channels whilst either maintaining or adjusting the transmembrane voltage. This assay can use either single glass micropipettes or parallel planar arrays to measure CFTR activity from native or recombinant cell systems. Currents measured using parallel planar arrays can be quantified using an appropriately equipped instrument such as the IonWorks Quattro (Molecular Devices Corporation, Sunnyvale, Calif.). The Quattro system can measure CFTR currents from either a single cell per recording well (HT configuration) or alternatively from a population of 64 cells per well (Population Patch Clamp PPC) (Finkel A, Wittel A, Yang N, Handran S, Hughes J, Costantin J. ‘Population patch clamp improves data consistency and success rates in the measurement of ionic currents.’ J Biomol Screen. 2006 August; 11(5):488-96).
Chinese hamster ovary (CHO) cells stably expressing WT-CFTR channels were used for the IonWorks Quattro experiments. Cells were maintained at 37° C. in 5% v/v CO2 at 100% humidity in MEM alpha medium supplemented with 10% (v/v) FCS, 100 U/mL Penicillin/Streptomycin, and 100 μg/L methotrexate. For experiments, cells were grown in 225 cm^2 tissue culture flasks until almost confluent. Cells were removed from the flask using trypsin-EDTA and resuspended in extracellular recording solution for immediate experimentation.
Cells, at a density of 1.5-2 million per mL, were placed on the Quattro system, added to the planar patch plate and seals allowed to establish for 5-10 mins. After assessing seal resistances (typically >50 MΩ), whole-cell access was obtained by perforation with 100 μg/mL amphotericin B. Baseline currents were measured by a pre-compound scan obtained by application of a voltage ramp from −100 to +100 mV. CFTR was activated by the addition of 10 μM forskolin to each of the 384 wells of the patch plate. After 5 min incubation the post-compound 1 currents were measured, again by application of a voltage ramp from −100 to +100 mV. Test compounds, diluted from 10 mM stocks in DMSO in extracellular solution were then added to the patch plate and were incubated for a further 10 min. The post-compound 2 currents were measured by the application of the same voltage ramp from −100 to +100 mV. The inhibition of CFTR was determined from the difference in current between the forskolin addition (post-compound 1) and the test compound (post-compound 2). This was determined at both −100 mV and +100 mV which represents the inward and outward current respectively.
Extracellular solution (ECS): 145 mM NaCl, 4 mM CsCl, 5 mM D-glucose, 10 mM TES, 1 mM CaCl2, 1 mM MgCl2, pH 7.4 NaOH
Intracellular solution (ICS): 113 mM L-Aspartic acid, 113 mM CsOH, 27 mM CsCl, 1 mM NaCl, 1 mM MgCl2, 1 mM EGTA, 10 mM TES. pH 7.2 with CsOH. Filter sterilized before use.
`Cc1ccc(C2NCCn3c(-c4ccccc4)c4c(=O)n(C)c(=O)n(C)c4c32)o1` (racemic) [Example 1.1, 1,3-Dimethyl-10-(5-methylfuran-2-yl)-5-phenyl-7,8,9,10-tetrahydropyrazino[1′,2′:1,2]pyrrolo[3,4-d]pyrimidine-2,4(1H,3H)-dione]: the IC50 stood at 4.64 µM.
To `Cc1ccc(C2OCCn3c(-c4ccccc4)c4c(=O)n(C)c(=O)n(C)c4c32)o1` (racemic) [Example 4.1, 1,3-Dimethyl-10-(5-methylfuran-2-yl)-5-phenyl-7,8-dihydro-1H-pyrimido[4′,5′:3,4]pyrrolo[2,1-c][1,4]oxazine-2,4(3H,10H)-dione] belongs 4.23 µM; to `Cc1ccc([C@H]2NCCn3c(-c4ccccc4)c4c(=O)n(C)c(=O)n(C)c4c32)o1` (single isomer, unassigned) [Example 1.3], more than 30 µM; to `Cn1c(=O)c2c(-c3ccccc3)n3c(c2n(C)c1=O)C(c1nc(C(F)(F)F)cs1)NCC3` (single isomer, unassigned) [Example 2.4, 1,3-Dimethyl-5-phenyl-10-(4-(trifluoromethyl)thiazol-2-yl)-7,8,9,10-tetrahydropyrazino[1′,2′:1,2]pyrrolo[3,4-d]pyrimidine-2,4(1H,3H)-dione], 4.98 µM.
The result for `Cn1c(=O)c2c(-c3ccccc3)n3c(c2n(C)c1=O)C(C1CCCCC1)NCC3` (single isomer, unassigned) [Example 2.6, 10-Cyclohexyl-1,3-dimethyl-5-phenyl-7,8,9,10-tetrahydropyrazino[1′,2′:1,2]pyrrolo[3,4-d]pyrimidine-2,4(1H,3H)-dione] reads 7.62 µM; that for `Cn1c(=O)c2c(-c3cccc(C#N)c3)n3c(c2n(C)c1=O)C(c1ccc(Cl)o1)NCC3` (single isomer, unassigned) [Example 2.9, 3-(10-(5-chlorofuran-2-yl)-1,3-dimethyl-2,4-dioxo-1,2,3,4,7,8,9,10-octahydropyrazino[1′,2′:1,2]pyrrolo[3,4-d]pyrimidin-5-yl)benzonitrile], 0.59 µM.
In turn, `Cc1ccc(C2OCCn3c(-c4ccccc4)c4c(=O)n(C)c(=O)n(C)c4c32)o1` (single isomer, unassigned) [Example 4.2, 1,3-dimethyl-10-(5-methylfuran-2-yl)-5-phenyl-7,8-dihydro-1H-pyrimido[4′,5′:3,4]pyrrolo[2,1-c][1,4]oxazine-2,4(3H,10H)-dione] had an IC50 of more than 30 µM.
Regarding `Cc1ccc(C2OCCn3c(-c4ccccc4)c4c(=O)n(C)c(=O)n(C)c4c32)o1` (single isomer, unassigned) [Example 4.3, 1,3-dimethyl-10-(5-methylfuran-2-yl)-5-phenyl-7,8-dihydro-1H-pyrimido[4′,5′:3,4]pyrrolo[2,1-c][1,4]oxazine-2,4(3H,10H)-dione], the IC50 was found to be 3.16 µM.
With `Cn1c(=O)c2c(-c3nc(CO)cs3)n3c(c2n(C)c1=O)C(c1ccc(Cl)o1)O[C@@H](CO)C3` (single isomer, unassigned) [Example 7.1a, 10-(5-Chlorofuran-2-yl)-8-(hydroxymethyl)-5-(4-(hydroxymethyl)thiazol-2-yl)-1,3-dimethyl-7,8-dihydro-1H-pyrimido[4′,5′:3,4]pyrrolo[2,1-c][1,4]oxazine-2,4(3H,10H)-dione], the midpoint of inhibition, the IC50, lay at 0.61 µM.
`Cn1c(=O)c2c(-c3cccc(C#N)c3)n3c(c2n(C)c1=O)[C@@H](c1nc(Cl)cs1)O[C@H](CO)C3` (single isomer, unassigned) [Example 9b, 3-(10-(4-Chlorothiazol-2-yl)-8-(hydroxymethyl)-1,3-dimethyl-2,4-dioxo-2,3,4,7,8,10-hexahydro-1H-pyrimido[4′,5′:3,4]pyrrolo[2,1-c][1,4]oxazin-5-yl)benzonitrile] returned an IC50 of 8.06 µM. This IC50 is about 13-fold higher than that of the molecule before.
To `Cn1c(=O)c2c(-c3cccc(C#N)c3)n3c(c2n(C)c1=O)[C@H](c1ccc(Cl)o1)O[C@@H](CO)C3` (stereo in doubt) [Example 6.1, 3-(10-(5-chlorofuran-2-yl)-8-(hydroxymethyl)-1,3-dimethyl-2,4-dioxo-2,3,4,7,8,10-hexahydro-1H-pyrimido[4′,5′:3,4]pyrrolo[2,1-c][1,4]oxazin-5-yl)benzonitrile] belongs 0.24 µM.
For the molecule `Cc1csc(-c2c3c(=O)n(C)c(=O)n(C)c3c3n2C[C@H](CO)O[C@H]3c2ccc(Cl)o2)n1` (stereo in doubt) [Example 7.0a, 10-(5-chlorofuran-2-yl)-8-(hydroxymethyl)-1,3-dimethyl-5-(4-methylthiazol-2-yl)-7,8-dihydro-1H-pyrimido[4′,5′:3,4]pyrrolo[2,1-c][1,4]oxazine-2,4(3H,10H)-dione], the IC50 was 0.09 µM.
The molecule `Cn1c(=O)c2c(-c3cccc(Cl)c3)n3c(c2n(C)c1=O)[C@H](c1nc(Cl)cs1)O[C@@H](CO)C3` (stereo in doubt) [Example 8.0a, 5-(3-Chlorophenyl)-10-(4-chlorothiazol-2-yl)-8-(hydroxymethyl)-1,3-dimethyl-7,8-dihydro-1H-pyrimido[4′,5′:3,4]pyrrolo[2,1-c][1,4]oxazine-2,4(3H,10H)-dione] registered an IC50 of 0.07 µM.
With `Cn1c(=O)c2c(-c3cccc(Cl)c3)n3c(c2n(C)c1=O)[C@H](c1ccc(Cl)o1)O[C@@H](CO)C3` (stereo in doubt) [Example 8.1a, 10-(5-Chlorofuran-2-yl)-5-(3-chlorophenyl)-8-(hydroxymethyl)-1,3-dimethyl-7,8-dihydro-1H-pyrimido[4′,5′:3,4]pyrrolo[2,1-c][1,4]oxazine-2,4(3H,10H)-dione], the IC50 came to 0.12 µM.
Take `Cc1cccc(-c2c3c(=O)n(C)c(=O)n(C)c3c3n2C[C@H](C)O[C@H]3c2ccc(Cl)o2)c1` (stereo in doubt) [Example 12.1, 10-(5-chlorofuran-2-yl)-1,3,8-trimethyl-5-(m-tolyl)-7,8-dihydro-1H-pyrimido[4′,5′:3,4]pyrrolo[2,1-c][1,4]oxazine-2,4(3H,10H)-dione]: the IC50 stood at 5.07 µM.
The result for `COC[C@@H]1Cn2c(-c3cccc(Cl)c3)c3c(=O)n(C)c(=O)n(C)c3c2[C@H](c2ccc(Cl)o2)O1` (stereo in doubt) [Example 12.2, 10-(5-chlorofuran-2-yl)-5-(3-chlorophenyl)-8-(methoxymethyl)-1,3-dimethyl-7,8-dihydro-1H-pyrimido[4′,5′:3,4]pyrrolo[2,1-c][1,4]oxazine-2,4(3H,10H)-dione] reads 0.24 µM; that for `CN(C)C[C@@H]1Cn2c(-c3cccc(Cl)c3)c3c(=O)n(C)c(=O)n(C)c3c2[C@H](c2ccc(Cl)o2)O1` (stereo in doubt) [Example 12.4, 10-(5-chlorofuran-2-yl)-5-(3-chlorophenyl)-8-((dimethylamino)methyl)-1,3-dimethyl-7,8-dihydro-1H-pyrimido[4′,5′:3,4]pyrrolo[2,1-c][1,4]oxazine-2,4(3H,10H)-dione], 0.54 µM.
Molecule `Cc1ccc([C@@H]2NCCn3c(-c4ccccc4)c4c(=O)n(C)c(=O)n(C)c4c32)o1` [Example 1.2, (R)-1,3-Dimethyl-10-(5-methylfuran-2-yl)-5-phenyl-7,8,9,10-tetrahydropyrazino[1′,2′:1,2]pyrrolo[3,4-d]pyrimidine-2,4(1H,3H)-dione] gave an IC50 of 1.58 µM.
The result for `Cn1c(=O)c2c(-c3ccccc3)n3c(c2n(C)c1=O)C(c1nccs1)NCC3` (stereo not drawn) [Example 1.7, 1,3-Dimethyl-5-phenyl-10-(thiazol-2-yl)-7,8,9,10-tetrahydropyrazino[1′,2′:1,2]pyrrolo[3,4-d]pyrimidine-2,4(1H,3H)-dione] reads 5.42 µM; that for `Cn1c(=O)c2c(-c3ccccc3)n3c(c2n(C)c1=O)C(c1nc(C(F)(F)F)cs1)NCC3` (stereo not drawn) [Example 1.9, 1,3-Dimethyl-5-phenyl-10-(4-(trifluoromethyl)thiazol-2-yl)-7,8,9,10-tetrahydropyrazino[1′,2′:1,2]pyrrolo[3,4-d]pyrimidine-2,4(1H,3H)-dione], 6.31 µM; that for `CCc1ccc(C2NCCn3c(-c4ccccc4)c4c(=O)n(C)c(=O)n(C)c4c32)o1` (stereo not drawn) [Example 1.10, 10-(5-Ethylfuran-2-yl)-1,3-dimethyl-5-phenyl-7,8,9,10-tetrahydropyrazino[1′,2′:1,2]pyrrolo[3,4-d]pyrimidine-2,4(1H,3H)-dione], 6.37 µM.
